# Measurements from patent publication US11236068B2, “Fused ring compounds” (Genentech, Inc., priority 2018, dated 2022).
# Biological target: K-Ras G12C (Homo sapiens (Human), UniProt P01116, G12C)
# Test: Western blot assay for in cell alkylation of K-Ras G12C (HCC1171 cells)
# Assay type: cell-based
# Settings: 18 hours at 37° C., 7 point dose response
# Experimental: HCC1171 cells were maintained in RPMI1640 supplemented with 10% FBS. Cells were plated in a 96-well plate at 20,000 cells/well and the following day compounds were added to the cells. After 18 hours at 37° C., cells were lysed in RIPA buffer (Sigma RO278) with 0.5% SDS and protease/phosphatase inhibitor cocktail. After through mixing to enable complete lysis, the lysates were cleared by centrifugation before 20 µl was transferred from each well and combined with loading buffer and reducing agent. After heating for 10 minutes at 95° C., […] of each sample was loaded onto a 4-20% Tris-Glycine gel and electrophoresed at 110V for 165 minutes in SDS-PAGE running buffer. Gels were transferred to a nitrocellulose membrane, blocked for 1 hour and stained overnight at 4° C. with primary antibody against K-Ras (polyclonal Proteintech 12063-1-AP). The membrane was then washed thoroughly and counterstained with anti-rabbit IRDye 800CW (LI-COR 926-32211) for one hour at room temperature. After final washes, the membrane was imaged on a LI-COR Odyssey CLx at medium resolution. […] To quantify this affect, the LICOR software was used to draw a rectangle over alkylated and unalkylated bands for each well and measured the total fluorescent intensity (FI) in each of these bands. The following formula was then used to calculate % alkylation: FI(alkylated)/(FI(alkylated)+FI(unalkylated))*100 for each well.
# A 7 point dose response curve was used to determine the IC50 for each compound. Cell alkylation data are presented below in Table 3.
# Chain of K-Ras G12C (P01116 other isoform, or with tags, fused parts or gaps G12C): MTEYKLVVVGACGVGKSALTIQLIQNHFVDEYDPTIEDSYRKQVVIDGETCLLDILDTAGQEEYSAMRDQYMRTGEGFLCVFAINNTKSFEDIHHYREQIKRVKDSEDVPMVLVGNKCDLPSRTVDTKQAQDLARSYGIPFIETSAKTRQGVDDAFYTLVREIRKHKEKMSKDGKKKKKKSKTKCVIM
row,SMILES,EC50
1,"C=C(F)C(=O)N1CCN(c2nc(OC[C@@H]3C[C@@H](F)CN3C)nc3cc(-c4nc(N)cc(C)c4C(F)(F)F)c(Cl)cc23)CC1CC#N (stereo partly drawn) [Example 56, 2-[4-[7-[6-amino-4-methyl-3-(trifluoromethyl)-2-pyridyl]-6-chloro-2-[[(2S,4R)-4-fluoro-1-methyl-pyrrolidin-2-yl]methoxy]quinazolin-4-yl]-1-(2-fluoroprop-2-enoyl)piperazin-2-yl]acetonitrile]",26 nM
2,"C=C(F)C(=O)N1CCN(c2nc(OC[C@@H]3CCCN3C)nc3cc(-c4nc(N)cc(C)c4C(F)(F)F)c(Cl)cc23)CC1CF (stereo partly drawn) [Example 57, 1-[4-[7-[6-amino-4-methyl-3-(trifluoromethyl)-2-pyridyl]-6-chloro-2-[[(2S)-1-methylpyrrolidin-2-yl]methoxy]quinazolin-4-yl]-2-(fluoromethyl)piperazin-1-yl]-2-fluoro-prop-2-en-1-one]",230 nM
3,"C=CC(=O)N1C[C@H](C)N(c2ncnc3cc(-c4nc(N)cc(C)c4C(F)(F)F)c(Cl)cc23)[C@@H](C)C1 [Example 60, 1-[(3S,5S)-4-[7-[6-amino-4-methyl-3-(trifluoromethyl)-2-pyridyl]-6-chloro-quinazolin-4-yl]-3,5-dimethyl-piperazin-1-yl]prop-2-en-1-one]",72 nM
4,"C=CC(=O)N1CCN(c2nc(OC3CCCC3N(C)C)nc3cc(-c4nc(N)cc(C)c4C(F)(F)F)c(Cl)cc23)[C@@H](C)C1 (stereo partly drawn) [Example 66, 1-[(3S)-4-[7-[6-amino-4-methyl-3-(trifluoromethyl)-2-pyridyl]-6-chloro-2-[2-(dimethylamino)cyclopentoxy]quinazolin-4-yl]-3-methyl-piperazin-1-yl]prop-2-en-1-one]",28 nM
5,"C=CC(=O)N1CCN(c2nc(OC[C@@H]3CCC4(CC4)N3C)nc3cc(-c4nc(N)ccc4C(F)(F)F)c(Cl)cc23)CC1 [Example 72, (S)-1-(4-(7-(6-amino-3-(trifluoromethyl)pyridin-2-yl)-6-chloro-2-((4-methyl-4-azaspiro[2.4]-heptan-5-yl)methoxy)quinazolin-4-yl)piperazin-1-yl)prop-2-en-1-one]",55 nM
6,"C=CC(=O)N1CCN(c2nc(OCC3(C)CC(F)(F)CN3C)nc3cc(-c4nc(N)ccc4C(F)(F)F)c(Cl)cc23)CC1 (centres unmarked) [Example 73, 1-(4-(7-(6-amino-3-(trifluoromethyl)pyridin-2-yl)-6-chloro-2-((4,4-difluoro-1,2-dimethylpyrrolidin-2-yl)methoxy)quinazolin-4-yl)piperazin-1-yl)prop-2-en-1-one]",110 nM
7,"C=CC(=O)N1CCN(c2nc(OC[C@@H]3[C@H]4C[C@H]4CN3C)nc3cc(-c4nc(N)ccc4C(F)(F)F)c(Cl)cc23)CC1 [Example 78a, 1-(4-(7-(6-amino-3-(trifluoromethyl)pyridin-2-yl)-6-chloro-2-(((1S,2S,5R)-3-methyl-3-azabicyclo[3.1.0]hexan-2-yl)methoxy)quinazolin-4-yl)piperazin-1-yl)prop-2-en-1-one]",56 nM
8,"C=CC(=O)N1CCN(c2nc(OC[C@@H]3[C@@H]4C[C@@H]4CN3C)nc3cc(-c4nc(N)ccc4C(F)(F)F)c(Cl)cc23)CC1 [Example 78b, 1-(4-(7-(6-amino-3-(trifluoromethyl)pyridin-2-yl)-6-chloro-2-(((1R,2S,5S)-3-methyl-3-azabicyclo[3.1.0]hexan-2-yl)methoxy)quinazolin-4-yl)piperazin-1-yl)prop-2-en-1-one]",40 nM
9,"C=CC(=O)N1CCN(c2nc(OC[C@@H]3CCCN3C3COC3)nc3cc(-c4nc(N)ccc4C(F)(F)F)c(Cl)cc23)CC1 [Example 87, 1-[4-[7-[6-amino-3-(trifluoromethyl)-2-pyridyl]-6-chloro-2-[[(2S)-1-(oxetan-3-yl)pyrrolidin-2-yl]methoxy]quinazolin-4-yl]piperazin-1-yl]prop-2-en-1-one]",180 nM
10,"C=CC(=O)N1CCN(c2nc(OCC3(N(C)C)CC3)nc3cc(-c4nc(N)ccc4C(F)(F)F)c(Cl)cc23)CC1 [Example 88, 1-(4-(7-(6-amino-3-(trifluoromethyl)pyridin-2-yl)-6-chloro-2-((1-(dimethylamino)cyclopropyl)methoxy)quinazolin-4-yl)piperazin-1-yl)prop-2-en-1-one]",240 nM
11,"C=CC(=O)N1CCN(c2nc(OC[C@@H]3C[C@@H](F)CN3CCOC)nc3cc(-c4nc(N)ccc4C(F)(F)F)c(Cl)cc23)CC1 [Example 89, 1-[4-[7-[6-amino-3-(trifluoromethyl)-2-pyridyl]-6-chloro-2-[[(2S,4R)-4-fluoro-1-(2-methoxyethyl)pyrrolidin-2-yl]methoxy]quinazolin-4-yl]piperazin-1-yl]prop-2-en-1-one]",29 nM

# Continued by falling EC50, values first:
row,EC50,SMILES
1,140 nM,"C=CC(=O)N1CCN(c2nc(OCCN3CC(CF)C3)nc3cc(-c4nc(N)ccc4C(F)(F)F)c(Cl)cc23)CC1 [Example 76, 1-(4-(7-(6-amino-3-(trifluoromethyl)pyridin-2-yl)-6-chloro-2-(2-(3-(fluoromethyl)azetidin-1-yl)ethoxy)quinazolin-4-yl)piperazin-1-yl)prop-2-en-1-one]"
2,110 nM,"C=CC(=O)N1CCN(c2nc(OC(C)(C)[C@@H]3CCCN3C)nc3cc(-c4nc(N)ccc4C(F)(F)F)c(Cl)cc23)CC1 [Example 74, 1-[4-[7-[6-amino-3-(trifluoromethyl)-2-pyridyl]-6-chloro-2-[1-methyl-1-[(2S)-1-methylpyrrolidin-2-yl]ethoxy]quinazolin-4-yl]piperazin-1-yl]prop-2-en-1-one]"
3,71 nM,"C=CC(=O)N1CCN(c2nc(OCC3CCC(COC)N3C)nc3cc(-c4nc(N)ccc4C(F)(F)F)c(Cl)cc23)CC1 (centres unmarked) [Example 80, 1-(4-(7-(6-amino-3-(trifluoromethyl)pyridin-2-yl)-6-chloro-2-((5-(methoxymethyl)-1-methylpyrrolidin-2-yl)methoxy)quinazolin-4-yl)piperazin-1-yl)prop-2-en-1-one]"
4,55 nM,"C=CC(=O)N1CCN(c2nc(OC[C@@H]3C[C@@H](F)[C@H](C)N3C)nc3cc(-c4nc(N)ccc4C(F)(F)F)c(Cl)cc23)CC1 [Example 90, 1-[4-[7-[6-amino-3-(trifluoromethyl)-2-pyridyl]-6-chloro-2-[[(2S,4R,5S)-4-fluoro-1,5-dimethyl-pyrrolidin-2-yl]methoxy]quinazolin-4-yl]piperazin-1-yl]prop-2-en-1-one]"
5,33 nM,"C=C(F)C(=O)N1CC(C)N(c2nc(OC[C@@H]3C[C@@H](F)CN3C)nc3cc(-c4nc(N)cc(C)c4C(F)(F)F)c(Cl)cc23)C[C@H]1CC#N (stereo partly drawn) [Example 58, 2-[(2R)-4-[7-[6-amino-4-methyl-3-(trifluoromethyl)-2-pyridyl]-6-chloro-2-[[(2S,4R)-4-fluoro-1-methyl-pyrrolidin-2-yl]methoxy]quinazolin-4-yl]-1-(2-fluoroprop-2-enoyl)-5-methyl-piperazin-2-yl]acetonitrile]"
6,25 nM,"C=CC(=O)N1CCN(c2nc(OC[C@@H]3[C@@H](F)CCN3C)nc3cc(-c4nc(N)ccc4C(F)(F)F)c(Cl)cc23)CC1 [Example 77, 1-[4-[7-[6-amino-3-(trifluoromethyl)-2-pyridyl]-6-chloro-2-[[(2R,3S)-3-fluoro-1-methyl-pyrrolidin-2-yl]methoxy]quinazolin-4-yl]piperazin-1-yl]prop-2-en-1-one]"
